According to patent US20250197453A1, “COMPOSITION COMPRISING TAT PEPTIDE VARIANT AS ACTIVE INGREDIENT FOR PREVENTING OR TREATING METABOLIC DISEASES” (priority 2021, published 2025):

Test system: 3T3-L1 cells
Test: PEGn-TAT variants: inhibition of differentiation of 3T3-L1 cells and of fatty acid synthesis
Assay type: cell-based
Protocol: 3T3-L1 cells were cultured in DMEM (high glucose, pyruvate, GIBCO CAT #11995) supplemented with 10% calf serum and 1% penicillin-streptomycin (P/S). Cells were seeded in a 6-well culture plate, and when the cells reached a confluency of 60 to 70%, MDI, a differentiation initiation medium, was added at a 1× concentration. At this time, the cells were treated with each of TAT-38, X-FAT8, and PEGn-TAT at a concentration of 1 to 10 μM. After 2 days, MDI was replaced with insulin, and each of AT-38, X-FAT8, and PEGn-TAT was added to fresh medium every day during culture. From day 4, culture was continued for 4 days in maintenance medium. Thereafter, the cell status was checked and recorded every day. When necessary, the cells were fixed and the amount of fatty acids was analyzed by Oil-O red staining.

TACTNCYCAKCCFHCQVC-(Peg)7-RAKRRQRRR [PEG7-TAT]
differentiation inhibitory ability and intracellular lipid accumulation, 3T3-L1 cells (4 days (FIG. 12A) and 6 days (FIG. 12B) after the initiation of differentiation): very high | differentiation inhibitory ability and intracellular lipid accumulation, 3T3-L1 cells (4 days after the initiation of differentiation, FIG. 11A): very high | differentiation inhibitory ability, 3T3-L1 cells (6 days after the induction of differentiation, FIG. 11B): still significant | differentiation and intracellular lipid accumulation, 3T3-L1 cells, Oil-O-Red staining (8 days after the initiation of differentiation, FIG. 13): strong inhibition of differentiation and inhibition of intracellular lipid accumulation
